Patent publication US9995734B2, “Human T cell line assay for evaluating the immunologic identity of glatiramer acetate preparations” (Mylan Inc., priority 2013, dated 2018)

Tested on: Donor 4 COP Responsive T-Cell Lines
Test: Multiplex bead cytokine assay (FlowCytomix), Donor 4 COP responsive T-cell lines
Format: cell-based, human
Set-up: IFN-γ / 1L-9 / IL-22 / IL-13: unit not given here
Details: for cytokine secretion: most tested Donor 4 cell lines, 20-24 hours
Protocol: The concentration of multiple cytokines was measured simultaneously using FlowCytoMix™ kits (eBioscience, San Diego Calif.). These are fluorescent bead based assays consisting of beads conjugated to anti cytokine antibodies. Beads specific for each cytokine are distinguished by size and fluorescence at 670 run. Cytokine bound to each bead is detected using a phycoerythrin conjugated antibody so that the fluorescence at 585 nm reflects the concentration of cytokine in the sample. Two kits were utilized which measured different cytokine panels. The TH1/TH2 kit measures IFN-γ, IL-1β, IL-2, IL-4, IL-5, IL-6, IL-8, IL-10, IL-12p70, TNF-α (TNF) and TNF-β (LT). The TH1/TH2/TH9/TH17/TH22 kit measures […], IL-1β, IL-2, IL-4, IL-5, IL-6, IL-9, IL-10, IL-12p70, IL-13, IL-17, IL-22, and TNF-α (TNF). Both kits were used following the manufacturer's instructions.
On Day 23 the positive wells (cell lines listed in Table 26) were transferred to a 24-well plate and restimulated with 10 μg/mL COP in the presence of mitomycin-treated autologous PBMC. IL-2 was added at Day 24. On Day 31 (after four rounds of restimulation) ten lines were restimulated with 10 μg/mL COP to confirm antigen reactivity by a cytokine secretion assay. T-cells were added at 2×10^4 cells/well in 96-well plates in X-VIVO 15 medium. Each line was separately stimulated with 10 μg/mL GMA, and 10 μg/mL COP in the presence of (2×10^5 cells/well, i.e., 1×10^6 cells/mL) mitomycin-treated autologous PBMC. Culture medium was collected after 20-24 hours for cytokine assay (FlowCytomix multiplex bead assay). The supernatants were tested in triplicate for IL-12 p70, IFN-γ, IL-2, IL-10, IL-6, IL-4, IL-5, TNF-α, and TNF-β secretion. […] Secretion of IL-2, 11-10, and IL-4 varied among the lines. All samples also secreted IL-8 (data not shown).
Culture medium from each of two Donor 4 cell lines was assayed for an extended panel of cytokines, showing production of IL-13 and IL-22 (Table 32).

[1] = T-cell line 1H9, 10 μg/mL, Day 31, medium after 20-24 hours
[2] = T-cell line 1H11, 10 μg/mL, Day 31, medium after 20-24 hours
[3] = T-cell line 205-1B4, extended cytokine multiplex assay
[4] = T-cell line 205-1B7, 10 μg/mL, Day 31, medium after 20-24 hours
[5] = T-cell line 205-1C4, 10 μg/mL, Day 31, medium after 20-24 hours
[6] = T-cell line 205-1F4, extended cytokine multiplex assay
[7] = T-cell line 205-1F5, 10 μg/mL, Day 31, medium after 20-24 hours
[8] = T-cell line 205-1G3, 10 μg/mL, Day 31, medium after 20-24 hours
[9] = T-cell line 205-1H5, 10 μg/mL, Day 31, medium after 20-24 hours
[10] = T-cell line 205-1H7, 10 μg/mL, Day 31, medium after 20-24 hours

## glatiramer acetate [COP]
[1]
  IFN-y: 419.21 pg/mL
  IL-2: <=0 pg/mL
  IL-4: <=0 pg/mL
  IL-5: <=0 pg/mL
  IL-6: <=0 pg/mL
  IL-10: <=0 pg/mL
  IL-12 p70: <=0 pg/mL
  TNF-α: 159.6 pg/mL
  TNF-β: <=0 pg/mL
[2]
  IFN-y: 1016.21 pg/mL
  IL-2: 44.94 pg/mL
  IL-4: 2.09 pg/mL
  IL-5: 3665.58 pg/mL
  IL-6: 20.11 pg/mL
  IL-10: 143.84 pg/mL
  IL-12 p70: 3.68 pg/mL
  TNF-α: 754.13 pg/mL
  TNF-β: 1.55 pg/mL
[3]
  1L-9: 29
  IFN-γ: 726
  IL-2: 0
  IL-4: 174
  IL-5: 3660
  IL-6: 114
  IL-10: 32
  IL-13: 19288
  IL-22: 668
  TNF-α: 1336
[4]
  IFN-y: 935.78 pg/mL
  IL-2: 27.99 pg/mL
  IL-4: 200.19 pg/mL
  IL-5: 7199.83 pg/mL
  IL-6: 195.27 pg/mL
  IL-10: 210.01 pg/mL
  IL-12 p70: 18.39 pg/mL
  TNF-α: 1286.09 pg/mL
  TNF-β: 244.68 pg/mL
[5]
  IFN-y: 1212.03 pg/mL
  IL-2: 478.51 pg/mL
  IL-4: 199.97 pg/mL
  IL-5: 6457.14 pg/mL
  IL-6: 159.24 pg/mL
  IL-10: 50.31 pg/mL
  IL-12 p70: 51.14 pg/mL
  TNF-α: 1529.22 pg/mL
  TNF-β: 69.07 pg/mL
[6]
  1L-9: 10
  IFN-γ: 1393
  IL-2: 110
  IL-4: 10
  IL-5: 1440
  IL-6: 77
  IL-10: 0
  IL-13: 4502
  IL-22: 168
  TNF-α: 616
[7]
  IFN-y: 452.76 pg/mL
  IL-2: 205.85 pg/mL
  IL-4: 293.46 pg/mL
  IL-5: 13727.89 pg/mL
  IL-6: 318.25 pg/mL
  IL-10: 323.52 pg/mL
  IL-12 p70: 55.94 pg/mL
  TNF-α: 833.39 pg/mL
  TNF-β: 278.68 pg/mL
[8]
  IFN-y: 211.16 pg/mL
  IL-2: 10.89 pg/mL
  IL-4: <=0 pg/mL
  IL-5: 91.11 pg/mL
  IL-6: 11.79 pg/mL
  IL-10: <=0 pg/mL
  IL-12 p70: <=0 pg/mL
  TNF-α: 38.56 pg/mL
  TNF-β: <=0 pg/mL
[9]
  IFN-y: 1149.77 pg/mL
  IL-2: 15.14 pg/mL
  IL-4: 79.67 pg/mL
  IL-5: 3106.45 pg/mL
  IL-6: 57.31 pg/mL
  IL-10: 28.45 pg/mL
  IL-12 p70: 7.96 pg/mL
  TNF-α: 1260.75 pg/mL
  TNF-β: 88.62 pg/mL
[10]
  IFN-y: 1617.25 pg/mL
  IL-2: 351.63 pg/mL
  IL-4: 90.37 pg/mL
  IL-5: 101.71 pg/mL
  IL-6: 69.44 pg/mL
  IL-10: 10.06 pg/mL
  IL-12 p70: 11.11 pg/mL
  TNF-α: 1924.81 pg/mL
  TNF-β: 49.17 pg/mL
Day 31, 10 μg/mL
  cytokine secretion: secreted IFN-γ, IL-5, and TNF-α

## glatiramer acetate [GMA]
[1]
  IFN-y: 182.77 pg/mL
  IL-2: <=0 pg/mL
  IL-4: <=0 pg/mL
  IL-5: <=0 pg/mL
  IL-6: 74.92 pg/mL
  IL-10: <=0 pg/mL
  IL-12 p70: <=0 pg/mL
  TNF-α: 161.89 pg/mL
  TNF-β: <=0 pg/mL
[2]
  IFN-y: 929 pg/mL
  IL-2: 22.78 pg/mL
  IL-4: <=0 pg/mL
  IL-5: 3349.8 pg/mL
  IL-6: 28.28 pg/mL
  IL-10: 145 pg/mL
  IL-12 p70: 2.24 pg/mL
  TNF-α: 609.49 pg/mL
  TNF-β: <=0 pg/mL
[3]
  1L-9: 21
  IFN-γ: 713
  IL-2: 0
  IL-4: 117
  IL-5: 3104
  IL-6: 109
  IL-10: 25
  IL-13: 13895
  IL-22: 478
  TNF-α: 868
[4]
  IFN-y: 828.5 pg/mL
  IL-2: 10.89 pg/mL
  IL-4: 187.29 pg/mL
  IL-5: 6854.13 pg/mL
  IL-6: 187.85 pg/mL
  IL-10: 182.81 pg/mL
  IL-12 p70: 44.57 pg/mL
  TNF-α: 1305.37 pg/mL
  TNF-β: 217.5 pg/mL
[5]
  IFN-y: 1046.32 pg/mL
  IL-2: 312.13 pg/mL
  IL-4: 124.7 pg/mL
  IL-5: 5434.06 pg/mL
  IL-6: 149.35 pg/mL
  IL-10: 45.24 pg/mL
  IL-12 p70: 46.89 pg/mL
  TNF-α: 1059.01 pg/mL
  TNF-β: 81.04 pg/mL
[6]
  1L-9: 7
  IFN-γ: 1207
  IL-2: 76
  IL-4: 7
  IL-5: 1459
  IL-6: 73
  IL-10: 16
  IL-13: 4506
  IL-22: 186
  TNF-α: 323
[7]
  IFN-y: 479.26 pg/mL
  IL-2: 197.46 pg/mL
  IL-4: 328.72 pg/mL
  IL-5: 13930.97 pg/mL
  IL-6: 314.54 pg/mL
  IL-10: 231.63 pg/mL
  IL-12 p70: 67.53 pg/mL
  TNF-α: 1084.01 pg/mL
  TNF-β: 260.35 pg/mL
[8]
  IFN-y: 193.91 pg/mL
  IL-2: 5.27 pg/mL
  IL-4: <=0 pg/mL
  IL-5: 121.17 pg/mL
  IL-6: 16.67 pg/mL
  IL-10: <=0 pg/mL
  IL-12 p70: 2.37 pg/mL
  TNF-α: 68.79 pg/mL
  TNF-β: 17.66 pg/mL
[9]
  IFN-y: 902.95 pg/mL
  IL-2: <=0 pg/mL
  IL-4: 46.82 pg/mL
  IL-5: 2534.09 pg/mL
  IL-6: 52.4 pg/mL
  IL-10: <=0 pg/mL
  IL-12 p70: 8.78 pg/mL
  TNF-α: 910.83 pg/mL
  TNF-β: 79.8 pg/mL
[10]
  IFN-y: 1275.97 pg/mL
  IL-2: 176.52 pg/mL
  IL-4: 58.41 pg/mL
  IL-5: 96.95 pg/mL
  IL-6: 64.82 pg/mL
  IL-10: <=0 pg/mL
  IL-12 p70: 13.42 pg/mL
  TNF-α: 552.89 pg/mL
  TNF-β: 34.81 pg/mL
Day 31, 10 μg/mL
  cytokine secretion: secreted IFN-γ, IL-5, and TNF-α
